Measurements taken from US20240018121A1, “NOVEL HETEROAROMATIC COMPOUNDS EXHIBITING ANTIFUNGAL ACTIVITY AND THEIR METHOD OF USE” (FOX CHASE CHEMCIAL DIVERSITY CENTER, INC., priority 2020, published 2024).
In brackets after ≈: the same amount, converted by molar mass. Structures can show the parent of a compound that is named as a salt. Where two headings read alike, the source gives them in different places.

Columns and labels:
Format in all cases: cell-based
[1] = system: Mucor circinelloides 1463(62) (ATCC 26759); assay: Fungal MIC Protocol, Mucor circinelloides (MIC-50); conditions: for MIC50: Mucor circinelloides, read-out: MIC-50 Mucorales circinelloides 26579
Procedure, shortened: (§1)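 Harvested spores, adjusted by OD530 to about 2×10^4 cfu/mL in RPMI/MOPS pH 7.0, are mixed with ten duplicate serial dilutions of compound. Incubation runs 48 h at 35° C before visual scoring of the lowest concentration inhibiting growth >50%.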

[2] = system: Mucor ramosissimus 057718 (ATCC 90286); assay: Fungal MIC Protocol, Mucor ramosissimus (MIC-50); conditions: for MIC50: Mucor ramosissimus, read-out: MIC-50 Mucorales ramosissimus 90286
Procedure, shortened: as §1

[3] = system: Fusarium falciforme FS1 (ATCC MYA-3636); assay: Fungal MIC Protocol, Fusarium falciforme; conditions: for MIC: Fusarium falciforme, read-out: MIC Fusarium falciforme 3636
Procedure, shortened: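 MIC against Fusarium falciforme was determined by broth microdilution in RPMI/MOPS medium containing glucose. Compounds started at 200 ug/mL and were serially diluted ten times, then combined with harvested spores adjusted to an OD530 of 0.005. Controls held compound without cells and spores without compound. Plates were bagged and incubated at 35° C. for 48 hours.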

[4] = system: Aspergillus flavus AFL1 (ATCC MYA-3631); assay: Fungal MIC Protocol, Aspergillus flavus; conditions: for MIC: Aspergillus flavus, read-out: MIC Aspergillus flavus 3631
Procedure, shortened: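 The MIC against Aspergillus flavus was measured by broth microdilution in RPMI/MOPS medium at pH 7.0. Compounds were diluted to 200 ug/mL from DMSO stocks, then ten serial dilutions were tested in duplicate in round bottom 96-well plates. Spores adjusted to a final OD530 of 0.002 were added, with no-cell and no-compound control wells, and plates were incubated 48 hours at 35° C.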

Candida albicans GDH2346 = assay: Candida Minimal Inhibitory Concentration (MIC); conditions: for MIC50: Candida albicans, read-out: MIC-50 Candida albicans GDH2346
Procedure, shortened: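 Twofold serial dilutions from 200 μg/mL in RPMI 1640/MOPS with glucose, pH 7.0, tested in duplicate against yeast from an OD600 1.0 suspension diluted 1:1000. Incubated at 35° C; OD600 read at 24 and 48 h.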

[5] = system: Fusarium solani (ATCC 58877); assay: Fungal MIC Protocol, Fusarium solani; conditions: for MIC: Fusarium solani, read-out: MIC Fusarium solani 58877
Procedure, shortened: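 Broth microdilution MIC test against Fusarium solani in RPMI/MOPS medium at pH 7.0. Compounds from DMSO stock were diluted to 200 ug/mL, then serially diluted ten times and plated in duplicate at 50 μl per well. 50 ul of spore suspension at OD530 0.005 was added. Controls had compound without cells and spores without compound. Plates were mixed gently, bagged, and incubated at 35° C. for 48 hours.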

[6] = system: Aspergillus fumigatus T33439 (ATCC MYA-3626); assay: Fungal MIC Protocol, Aspergillus fumigatus; conditions: for MIC: Aspergillus fumigatus, read-out: MIC Aspergillus fumigatus 3626
Procedure, shortened: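 This broth microdilution MIC test used RPMI/MOPS medium at pH 7.0 with glucose. Compounds were diluted from DMSO stock to 200 ug/mL and serially diluted ten times in 96-well round bottom plates. Equal volumes of compound and Aspergillus spore suspension at OD530 0.002 were combined, with controls of compound without cells and spores without compound. Plates were bagged and incubated at 35° C. for 48 hours.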

[7] = ATCC26759, 50% growth inhibition at 48 hours
[8] = ATCC90286, 50% growth inhibition at 48 hours
[9] = 100% growth inhibition at 48 hours
[10] = GDH2346, 50% growth inhibition at 48 hours
[11] = ATCC58877, 100% growth inhibition at 48 hours
[12] = 50% growth inhibition at 48 hours

Compound | MIC50 [1, 7] [µg/mL] | MIC50 [2, 8] [µg/mL] | MIC [3, 9] [µg/mL] | MIC [4, 9] [µg/mL] | MIC50 (Candida albicans GDH2346; [10]) [µg/mL] | MIC [5, 11] [µg/mL] | MIC [6, 9] [µg/mL] | also measured
Cc1cc(C2=CCN(C(=N)N)CC2)ccc1-c1nnc(-c2ccc(C3=CCN(C(=N)N)CC3)cc2)n1C [Example 21, 4-(4-(5-(4-(1-Carbamimidoyl-1,2,3,6-tetrahydropyridin-4-yl)-2-methylphenyl)-4-methyl-4H-1,2,4-triazol-3-yl)phenyl)-5,6-dihydropyridine-1(2H)-carboximidamide] | 3.13 (≈ 6.32 µM) | 6.25 (≈ 12.6 µM) | 0.2 (≈ 0.404 µM) | 0.39 (≈ 0.787 µM) | 0.3 (≈ 0.605 µM) | 0.2 (≈ 0.404 µM) | 0.2 (≈ 0.404 µM) | –
4,4-(4,4-(4-Cyclohexyl-4H-1,2,4-triazole-3,5-diyl)bis(4,1-phenylene))bis (5,6-dihydropyridine-1(2H)-carboximidamide) [Example 56] | – | – | – | – | – | – | – | MIC-50 Mucorales circinelloides 26579 [1, 12]: 0.39 µg/mL; MIC-50 Mucorales ramosissimus 90286 [2, 12]: 1.56 µg/mL; MIC Fusarium falciforme 3636 [3, 9]: <0.1 µg·mL; MIC Aspergillus flavus 3631 [4, 9]: 0.39 µg·mL; MIC-50 Candida albicans GDH2346 (Candida albicans GDH2346; [12]): 0.78 µg/mL; MIC Fusarium solani 58877 [5, 9]: <0.1 µg·mL; MIC Aspergillus fumigatus 3626 [6, 9]: 0.39 µg·mL
Cn1c(-c2ccc(C3=CCN(C(=N)N)CC3)cc2F)nnc1-c1ccc(C2=CCN(C(=N)N)CC2)cc1F [Example 8, 4,4′-(4,4′-(4-Methyl-4H-1,2,4-triazole-3,5-diyl)bis(3-fluoro-4,1-phenylene)) bis(5,6-dihydropyridine-1(2H)-carboximidamide)] | 0.2 (≈ 0.386 µM) | 0.39 (≈ 0.753 µM) | 0.006 (≈ 0.0116 µM) | 0.05 (≈ 0.0966 µM) | 0.1 (≈ 0.193 µM) | 0.05 (≈ 0.0966 µM) | 0.05 (≈ 0.0966 µM) | –
N=C(N)N1CC=C(c2ccc(-c3nnc(-c4ccc(C5=CCN(C(=N)N)CC5)cc4F)n3Cc3ccccc3)cc2)CC1 [Example 7, 4-(4-(4-Benzyl-5-(4-(1-carbamimidoyl-1,2,3,6-tetrahydropyridin-4-yl)-2-fluorophenyl)-4H-1,2,4-triazol-3-yl)phenyl)-5,6-dihydropyridine-1(2H)-carboximidamide] | 0.78 (≈ 1.35 µM) | 1.56 (≈ 2.71 µM) | < 0.1 | 0.78 (≈ 1.35 µM) | 3.13 (≈ 5.44 µM) | 0.39 (≈ 0.677 µM) | < 0.1 | –
Cn1c(-c2ccc(C3=CCC(C(=N)N)CC3)cc2F)nnc1-c1ccc(C2=CCC(C(=N)N)CC2)cc1F (stereo not shown) [Example 87, 4-(4-{5-[4-(4-carbamimidoylcyclohex-1-en-1-yl)-2-fluorophenyl]-4-methyl-4H-1,2,4-triazol-3-yl}-3-fluorophenyl)cyclohex-3-ene-1-carboximidamide trifluoroacetate] | – | – | – | – | – | – | – | MIC50 ([1]; ATCC26759, 48 h): 0.39 µg/mL; MIC50 ([2]; ATCC90286, 48 h): 3.13 µg/mL; MIC ([3]; 48 h): 0.1 µg/mL; MIC ([4]; 48 h): 0.78 µg/mL; MIC50 (Candida albicans GDH2346; GDH2346, 48 h): 0.2 µg/mL; MIC ([5]; ATCC58877, 48 h): 0.2 µg/mL; MIC ([6]; 48 h): 0.2 µg/mL
Cc1cc(C2=CCN(C(=N)N)CC2)ccc1-c1nnc(-c2ccc(C3=CCN(C(=N)N)CC3)cc2)o1 [Example 43, 4-(4-(5-(4-(1-Carbamimidoyl-1,2,3,6-tetrahydropyridin-4-yl)-2-methylphenyl)-1,3,4-oxadiazol-2-yl)phenyl)-5,6-dihydropyridine-1(2H)-carboximidamide] | 12.5 (≈ 25.9 µM) | 25 (≈ 51.8 µM) | 0.2 (≈ 0.414 µM) | 0.31 (≈ 0.642 µM) | 0.39 (≈ 0.808 µM) | 0.78 (≈ 1.62 µM) | 0.78 (≈ 1.62 µM) | –
N=C(N)N1CC=C(c2ccc(-c3nnc(-c4ccc(C5=CCN(C(=N)N)CC5)cc4F)n3C3CCN(C(=N)N)CC3)c(F)c2)CC1 [Example 12, 4,4′-(4,4′-(4-(1-Carbamimidoylpiperidin-4-yl)-4H-1,2,4-triazole-3,5-diyl)bis (3-fluoro-4,1-phenylene))bis(5,6-dihydropyridine-1(2H)-carboximidamide)] | > 100 | > 100 | 0.39 (≈ 0.62 µM) | 3.13 (≈ 4.98 µM) | 12.5 (≈ 19.9 µM) | < 0.1 | 3.13 (≈ 4.98 µM) | –
N=C(N)N1CC=C(c2ccc(-c3nnc(-c4ccc(C5=CCN(C(=N)N)CC5)cc4F)n3C3CC3)c(F)c2)CC1 [Example 17, 4,4′-(4,4′-(4-Cyclopropyl-4H-1,2,4-triazole-3,5-diyl)bis(3-fluoro-4,1-phenylene))bis(5,6-dihydropyridine-1(2H)-carboximidamide)] | 0.39 (≈ 0.717 µM) | 0.78 (≈ 1.43 µM) | < 0.1 | 0.39 (≈ 0.717 µM) | 3.13 (≈ 5.76 µM) | 0.39 (≈ 0.717 µM) | < 0.1 | –
Cn1c(-c2ccc(C3=CCN(C(=N)N)CC3)c(F)c2)nnc1-c1ccc(C2=CCN(C(=N)N)CC2)c(F)c1 [Example 19, 4,4′-(4,4-(4-Methyl-4H-1,2,4-triazole-3,5-diyl)bis(2-fluoro-4,1-phenylene)) bis(5,6-dihydropyridine-1(2H)-carboximidamide)] | 0.1 (≈ 0.193 µM) | 0.2 (≈ 0.386 µM) | 0.01 (≈ 0.0193 µM) | 0.03 (≈ 0.058 µM) | 0.1 (≈ 0.193 µM) | 0.03 (≈ 0.058 µM) | 0.01 (≈ 0.0193 µM) | –
Cc1cc(C2=CCN(C(=N)N)CC2)ccc1-c1cn(-c2ccc(C3=CCN(C(=N)N)CC3)cc2)nn1 [Example 36, 4-(4-(4-(4-(1-Carbamimidoyl-1,2,3,6-tetrahydropyridin-4-yl)-2-methylphenyl)-1H-1,2,3-triazol-1-yl)phenyl)-5,6-dihydropyridine-1(2H)-carboximidamide] | 0.78 (≈ 1.62 µM) | 3.13 (≈ 6.5 µM) | 0.1 (≈ 0.208 µM) | 0.2 (≈ 0.415 µM) | 0.39 (≈ 0.81 µM) | 0.2 (≈ 0.415 µM) | 0.2 (≈ 0.415 µM) | –
COCCn1c(-c2ccc(C3=CCN(C(=N)N)CC3)cc2F)nnc1-c1ccc(C2=CCN(C(=N)N)CC2)cc1F [Example 68, 4-(4-{5-[4-(1-carbamimidoyl-1,2,3,6-tetrahydropyridin-4-yl)-2-fluorophenyl]-4-(2-methoxyethyl)-4H-1,2,4-triazol-3-yl}-3-fluorophenyl)-1,2,3,6-tetrahydropyridine-1-carboximidamide trifluoroacetate] | – | – | – | – | – | – | – | MIC50 ([1]; ATCC26759, 48 h): 0.39 µg/mL; MIC50 ([2]; ATCC90286, 48 h): 0.78 µg/mL; MIC ([3]; 48 h): < 0.1 µg/mL; MIC ([4]; 48 h): < 0.1 µg/mL; MIC50 (Candida albicans GDH2346; GDH2346, 48 h): 0.2 µg/mL; MIC ([5]; ATCC58877, 48 h): < 0.1 µg/mL; MIC ([6]; 48 h): 0.1 µg/mL
CC(C)n1c(-c2ccc(C3=CCN(C(=N)N)CC3)cc2F)nnc1-c1ccc(C2=CCN(C(=N)N)CC2)cc1F [Example 13, 4,4-(4,4-(4-Isopropyl-4H-1,2,4-triazole-3,5-diyl)bis(3-fluoro-4,1-phenylene))bis(5,6-dihydropyridine-1(2H)-carboximidamide)] | 0.39 (≈ 0.715 µM) | 1.56 (≈ 2.86 µM) | 0.78 (≈ 1.43 µM) | 0.2 (≈ 0.367 µM) | 0.2 (≈ 0.367 µM) | 6.25 (≈ 11.5 µM) | < 0.1 | –
Cl.N=C(N)N1CC=C(c2ccc(-c3nnc(-c4ccc(C5=CCN(C(=N)N)CC5)cc4)n3CCO)cc2)CC1 [Example 70, 4-(4-{5-[4-(1-carbamimidoyl-1,2,3,6-tetrahydropyridin-4-yl)phenyl]-4-(2-hydroxyethyl)-4H-1,2,4-triazol-3-yl}phenyl)-1,2,3,6-tetrahydropyridine-1-carboximidamide hydrochloride] | 1.56 | 12.5 | 0.05 | 0.1 | 0.3 | 0.05 | 0.1 | –
